Reference: ChEMBL document CHEMBL1139288, “A simple synthesis of four stereoisomers of roseoside and their inhibitory activity on leukotriene release from mice bone marrow-derived cultured mast cells” (2009)

Experiment: Inhibition of leukotriene release in ICR mouse BMCMC […] after 6 hrs by ELISA
Assay type: functional

Structure (SMILES) | inhibition (INH)
CC1=CC(=O)CC(C)(C)[C@]1(O)/C=C/[C@@H](C)O[C@@H]1O[C@H](CO)[C@@H](O)[C@H](O)[C@H]1O | 22.9%
CC1=CC(=O)CC(C)(C)[C@]1(O)/C=C/[C@H](C)O[C@@H]1O[C@H](CO)[C@@H](O)[C@H](O)[C@H]1O | 36.7%
CC1=CC(=O)CC(C)(C)[C@@]1(O)/C=C/[C@H](C)O[C@@H]1O[C@H](CO)[C@@H](O)[C@H](O)[C@H]1O [6S,9S-ROSEOSIDE] | 70.3%
CC1=CC(=O)CC(C)(C)[C@@]1(O)/C=C/[C@@H](C)O[C@@H]1O[C@H](CO)[C@@H](O)[C@H](O)[C@H]1O [6S,9R-ROSEOSIDE] | 67.4%
